# Results taken from patent US20250351832A1, “PHYTOCHEMICALS AS BIOPESTICIDES AND BIOSTIMULANTS” (KAY BEE BIO ORGANICS PVT. LTD., priority 2024, published 2025).
# Like-named read-outs stand apart in the source and are kept apart here.
# What was measured:
# [1] = system: Aphid; experiment: whole plant or invertebrate; settings: 48 h
# [2] = system: Spodoptera litura; experiment: whole plant or invertebrate; settings: 72 h
# [3] = system: Mite; settings: in vivo
# [4] = system: Alternaria alternata; experiment: In vitro poisoned food technique against fungus (Ex. 20); format: cell-based; settings: […]
# [5] = system: Spodoptera litura
# [6] = system: tomato seedlings; experiment: Response of tomato plants, greenhouse growth (Ex. 30); format: in vivo; settings: for CCI 5th Day / Plant Height 5th Day / Stem Girth 5th Day: 120 h; for CCI 10th Day / Plant Height 10th Day / Root Length % Increase over control / Stem Girth 10th Day: 240 h; for Plant Height % Increase over pre on 10th Day / Stem Girth % Increase over pre on 10th Day / CCI % Increase over pre on 10th Day / Root Length (cm) 10th Day: tomato seedlings, dose 1 ml/gm/lit
# [7] = system: Mite; settings: in vivo; remark: listed apart in the source
# [8] = system: Thrips; settings: 48 h, 1 mL or g/L
# [9] = system: Aphid
# [10] = system: chili seedlings; experiment: Response of chili plants, greenhouse growth (Ex. 31); format: in vivo; settings: for CCI 5th Day / Plant Height (cm) 5th Day: 120 h; for CCI 10th Day / Plant Height (cm) 10th Day / Root Lenght % Increase over control: 240 h; for CCI % Increase over pre on 10th Day / Plant Height % Increase over pre on 10th Day / Root Lenght (cm) 10th Day / Stem Girth % Increase over pre on 10th Day: chili seedlings, dose 1 ml/gm/lit
# [11] = system: Thrips; experiment: whole plant or invertebrate; settings: in Gossypium hirsutum, 48 h
# [12] = system: Spodoptera litura; settings: in vivo
# [13] = system: Aphid; settings: 48 h, 1 mL or g/L
# [14] = system: Thrips
# [15] = cited from earlier work; for Phytotonic Effect: Table 13, effect on plants, descriptive
# [16] = system: Helicoverpa armigera; settings: in vivo
# [17] = system: Helicoverpa armigera; settings: in vivo; remark: listed apart in the source
# [18] = read-out: % Corrected Mortality at 48 Hrs.
# [19] = read-out: % Mortality at 48 Hrs.
# [20] = read-out: % Corrected Mortality at 72 Hrs.
# [21] = read-out: % Mortality at 72 Hrs.
# [22] = Table 13, descriptive, no test described
smiles,measurement,setting,value
CC(C)=CCCC(C)=CC=O [Citral],mortality at 1 mL or g/L,[1]; [18],64.7%
same,mortality at 1 mL or g/L,[1]; [19],70%
same,mortality at 1 mL or g/L,[2]; [20],52.6%
same,mortality at 1 mL or g/L,[2]; [21],55%
same,% Mortality at 48 Hrs.,[3],55.00%
same,inhibition of growth at 1 mL or g/L,[4],48.3%
same,Total No. of dead insect at 72 Hrs.,"[5]; 72 h, 1 mL or g/L",5.50
same,CCI Pre,[6],11.20
same,Plant Height Pre,[6],6.11 cm
same,Stem Girth Pre,[6],1.35 mm
same,CCI 5th Day,[6],13.34
same,Plant Height 5th Day,[6],7.15 cm
same,Stem Girth 5th Day,[6],1.46 mm
same,CCI 10th Day,[6],14.25
same,Plant Height 10th Day,[6],7.85 cm
same,Root Length % Increase over control,[6],25.08%
same,Stem Girth 10th Day,[6],2.12 mm
same,Plant Height % Increase over pre on 10th Day,[6],28.48%
same,Stem Girth % Increase over pre on 10th Day,[6],56.50%
same,CCI % Increase over pre on 10th Day,[6],27.23%
same,Root Length (cm) 10th Day,[6],4.16 cm
same,% Mortality at 48 Hrs.,[7],55.00%
same,Total No. of dead insect at 48 Hrs.,[8],5.75
same,Total No. of dead insect at 48 Hrs.,[9],6.50
same,% Corrected Mortality at 48 Hrs.,[9]; in vivo,60.00%
same,% Mortality at 48 Hrs.,[9]; in vivo,65.00%
same,CCI Pre,[10],8.60
same,Plant Height (cm) Pre,[10],4.47 cm
same,CCI 5th Day,[10],11.02
same,Plant Height (cm) 5th Day,[10],6.30 cm
same,CCI 10th Day,[10],12.02
same,Plant Height (cm) 10th Day,[10],6.79 cm
same,Root Lenght % Increase over control,[10],14.22%
same,CCI % Increase over pre on 10th Day,[10],39.77%
same,Plant Height % Increase over pre on 10th Day,[10],52.01%
same,Root Lenght (cm) 10th Day,[10],3.13 cm
same,Stem Girth % Increase over pre on 10th Day,[10],38.62%
same,mortality at 1 mL or g/L,[11]; [18],51.4%
same,mortality at 1 mL or g/L,[11]; [19],57.5%
same,% Corrected Mortality at 72 Hrs.,[12],50.00%
same,% Mortality at 72 Hrs.,[12],52.50%
same,Total No. of dead insect at 48 Hrs.,[13],70.00
same,Total No. of dead insect at 48 Hrs.,[14],57.50
same,% Corrected Mortality at 48 Hrs.,[14]; in vivo,52.78%
same,Acaricidal Activity - Mode of action,[15]; [22],Repelling and killing
same,Antifungal Activity - Mode of action,[15]; [22],Inhibited the mycelial
same,Antioxidant Activity - Mode of action,[15]; [22],Induced the overexpression
same,Bactericidal Activity - Mode of action,[15]; [22],High mortality against
same,Insecticidal Activities - Mode of action,[15]; [22],Repellent and Antifeedant
same,Nematicidal Activity - Mode of action,[15]; [22],Strong Nematicidal activity
same,Virucidal Activity - Mode of action,[15]; [22],Increases plant disease
same,Phytotonic Effect,[15],Trigger
Cc1ccc(C(C)C)cc1 [p-Cymene],mortality at 1 mL or g/L,[1]; [18],52.9%
same,mortality at 1 mL or g/L,[1]; [19],60%
same,% Corrected Mortality at 72 Hrs.,[16],65.00%
same,% Mortality at 72 Hrs.,[16],65.00%
same,mortality at 1 mL or g/L,[2]; [20],71%
same,mortality at 1 mL or g/L,[2]; [21],72.5%
same,inhibition of growth at 1 mL or g/L,[4],34.1%
same,Total No. of dead insect at 72 Hrs.,"[5]; Spodoptera litura on castor leaves, dose 1 ml/gm/lit., 10 insects/treatment, 72 hrs after application",7.25
same,% Corrected Mortality at 72 Hrs.,[17],65.00%
same,% Mortality at 72 Hrs.,[17],65.00%
same,CCI Pre,[6],12.58
same,Plant Height Pre,[6],6.12 cm
same,Stem Girth Pre,[6],1.35 mm
same,CCI 5th Day,[6],14.52
same,Plant Height 5th Day,[6],7.24 cm
same,Stem Girth 5th Day,[6],1.82 mm
same,CCI 10th Day,[6],15.68
same,Plant Height 10th Day,[6],7.84 cm
same,Root Length % Increase over control,[6],21.38%
same,Stem Girth 10th Day,[6],2.06 mm
same,Plant Height % Increase over pre on 10th Day,[6],28.10%
same,Stem Girth % Increase over pre on 10th Day,[6],52.59%
same,CCI % Increase over pre on 10th Day,[6],24.64%
same,Root Length (cm) 10th Day,[6],4.04 cm
same,Total No. of dead insect at 48 Hrs.,[8],6.00
same,Total No. of dead insect at 48 Hrs.,[9],6.00
same,% Corrected Mortality at 48 Hrs.,[9]; in vivo,54.29%
same,CCI Pre,[10],9.30
same,Plant Height (cm) Pre,[10],4.29 cm
same,CCI 5th Day,[10],11.47
same,Plant Height (cm) 5th Day,[10],6.13 cm
same,CCI 10th Day,[10],13.48
same,Plant Height (cm) 10th Day,[10],6.48 cm
same,Root Lenght % Increase over control,[10],15.10%
same,CCI % Increase over pre on 10th Day,[10],44.95%
same,Plant Height % Increase over pre on 10th Day,[10],51.05%
same,Root Lenght (cm) 10th Day,[10],3.15 cm
same,Stem Girth % Increase over pre on 10th Day,[10],40.29%
same,mortality at 1 mL or g/L,[11]; [18],54.3%
same,mortality at 1 mL or g/L,[11]; [19],60%
same,% Corrected Mortality at 72 Hrs.,[12],68.42%
same,% Mortality at 72 Hrs.,[12],70.00%
same,Total No. of dead insect at 48 Hrs.,[13],60.00
same,Total No. of dead insect at 48 Hrs.,[14],57.50
same,% Corrected Mortality at 48 Hrs.,[14]; in vivo,52.78%
same,% Mortality at 48 Hrs.,[14]; in vivo,57.50%
same,Acaricidal Activity - Mode of action,[15]; [22],Showed mortality against
same,Bactericidal Activity - Mode of action,[15]; [22],Strong anti-bacterial
same,Insecticidal Activities - Mode of action,[15]; [22],High mortality against
same,Nematicidal Activity - Mode of action,[15]; [22],Effective in reducing
same,Phytotonic Effect,[15],Trigger plant
